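Values below derive from 48-hour exposures of cells grown in 96-well plates, with endpoints linearly interpolated between the two concentrations bracketing the appropriate inhibition level. TGI marks complete inhibition of growth.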
Legend:
Test in all cases: NCI anticancer screen, dose series, 48 h
UACC-257 melanoma = tested on: UACC-257 melanoma
U251 CNS = tested on: U251 CNS
UACC-62 melanoma = tested on: UACC-62 melanoma
SNB-19 CNS = tested on: SNB-19 CNS
SK-MEL-2 melanoma = tested on: SK-MEL-2 melanoma
RPMI-8226 leukemia = tested on: RPMI-8226 leukemia
SW-620 colon = tested on: SW-620 colon
HT29 colon = tested on: HT29 colon
NCI-H23 lung = tested on: NCI-H23 lung
SF-295 CNS = tested on: SF-295 CNS
HCT-15 colon = tested on: HCT-15 colon
HOP-92 NSCLC = tested on: HOP-92 NSCLC
HL-60(TB) leukemia = tested on: HL-60(TB) leukemia
COLO 205 colon = tested on: COLO 205 colon
NCI-H460 lung = tested on: NCI-H460 lung
DU-145 prostate = tested on: DU-145 prostate
RXF 393 renal = tested on: RXF 393 renal
A549 NSCLC = tested on: A549 NSCLC
OVCAR-3 ovarian = tested on: OVCAR-3 ovarian

SMILES	TGI (UACC-257 melanoma)	TGI (U251 CNS)	TGI (UACC-62 melanoma)	TGI (SNB-19 CNS)	TGI (SK-MEL-2 melanoma)	TGI (RPMI-8226 leukemia)	TGI (SW-620 colon)	TGI (HT29 colon)	TGI (NCI-H23 lung)	TGI (SF-295 CNS)	TGI (HCT-15 colon)	TGI (HOP-92 NSCLC)	TGI (HL-60(TB) leukemia)	TGI (COLO 205 colon)	TGI (NCI-H460 lung)	TGI (DU-145 prostate)	TGI (RXF 393 renal)	TGI (A549 NSCLC)	TGI (OVCAR-3 ovarian)
c1cc2nnsc2s1	> 100 µM	> 100 µM	> 100 µM	> 100 µM	> 100 µM	> 100 µM	> 100 µM	> 100 µM	> 100 µM	> 100 µM	> 100 µM	> 100 µM	> 100 µM	> 100 µM	> 100 µM	–	–	–	–
CCOC(=O)C1(C/C=C/CCl)CCCC1=O (configuration not stated)	> 100 µM	86.7 µM	30.2 µM	61.2 µM	59 µM	–	42.1 µM	68.4 µM	38.3 µM	> 100 µM	40 µM	–	> 100 µM	72.9 µM	> 100 µM	> 100 µM	32.7 µM	49.4 µM	–
CNC1c2ccccc2C(=O)c2cc3c(cc21)OCCOCCOCCOCCO3 (configuration not stated)	> 100 µM	> 100 µM	–	> 100 µM	–	> 100 µM	> 100 µM	> 100 µM	–	> 100 µM	> 100 µM	–	66.6 µM	> 100 µM	> 100 µM	–	–	> 100 µM	–
CC(=O)OCCOCNC(=S)N/N=C/c1cc([N+](=O)[O-])ccc1O	> 100 µM	> 100 µM	> 100 µM	> 100 µM	> 100 µM	–	> 100 µM	> 100 µM	> 100 µM	> 100 µM	> 100 µM	> 100 µM	> 100 µM	> 100 µM	> 100 µM	–	> 100 µM	> 100 µM	> 100 µM
O=c1[nH]c(=O)n(C2CC(O)C(CO)O2)cc1C(F)(C(F)(F)F)C(F)(F)F (configuration not stated)	> 100 µM	> 100 µM	> 100 µM	> 100 µM	> 100 µM	> 100 µM	> 100 µM	> 100 µM	> 100 µM	> 100 µM	> 100 µM	> 100 µM	> 100 µM	> 100 µM	> 100 µM	–	> 100 µM	–	> 100 µM
CNC(=O)C1(C#N)C(c2ccccc2)C(C#N)(C(=O)NC)C1c1ccccc1 (configuration not stated)	–	> 100 µM	–	> 100 µM	> 100 µM	> 100 µM	> 100 µM	> 100 µM	> 100 µM	> 100 µM	> 100 µM	> 100 µM	–	> 100 µM	> 100 µM	–	–	> 100 µM	> 100 µM
CN/C=C(\C(=O)c1ccc(OC)c(OC)c1)c1ccc(OC)cc1	39.5 µM	21.3 µM	49.6 µM	> 100 µM	31.5 µM	24.4 µM	37.5 µM	38.2 µM	> 100 µM	> 100 µM	28.2 µM	–	32.3 µM	38.3 µM	63.2 µM	–	33.2 µM	> 100 µM	–

From PubChem BioAssay (NCI)
